Measurements: article PMC10349806 (Nature Communications, 2023)
Several values for one entry are separate records, joined by “and”; a condition that tells them apart may be missing. Equal values may be shown once. Read-outs that look alike come from different tables or passages of the source.

Legend:
Assay type in all cases: cell-based, Plasmodium falciparum
PfCRT variant E121A = assay: CQ uptake assay, oocytes expressing E121A
Protocol: (§1) Site-directed mutagenesis of PfCRT^Dd2 was performed as described using the megaprimer method with overlap extension[21],[54]. The primer pairs used are listed in Supplementary Table 6. Please note that a codon-optimized and oocyte-adapted version of PfCRT^Dd2 was used[22] (Supplementary Fig. 16). The resulting DNA fragment was cloned into the SP64T expression vector and verified by sequencing.
(§2) Oocytes were obtained as described previously. Briefly, adult (>2 years old) female X. laevis frogs (NASCO) were anesthetized in a cooled solution of ethyl 3-amino benzoate methanesulfonate (0.1%, w/v), followed by a surgical removal of parts of the ovary. The ovary lobes were carefully dissected and small pieces of oocytes were incubated in Ca^2+-free ND96 buffer (96 mM NaCl, 2 mM KCl, 1 mM MgCl2 buffered with 5 mM HEPES/NaOH, pH 7.5) supplemented with collagenase D (0.1%, w/v; Roche), BSA (0.5%, w/v), and 9 mm Na2HPO4 at 18 °C for 14-16 h while gentle shaking. After incubation, the oocytes were carefully washed several times with ND96 buffer (96 mM NaCl, 2 mM KCl, 1.8 mM CaCl2, 1 mM MgCl2 buffered with 5 mM HEPES/NaOH, pH 7.5) supplemented with 100 mg l^−1 gentamycin). Defolliculated and healthy-looking stage V-VI oocytes were manually selected for RNA microinjection. The RNA was generated as following: The codon-optimized sequences of PfCRT variants were cloned into the pSP64T expression vector. After vector linearization using the restriction endonucleases BamHI or SalI (New England Biolabs), transcription was performed using the in vitro SP6 mMessage mMachine Kit (Ambion)[34]. The obtained RNA was kept at −80 °C and diluted with nuclease-free water to a concentration of 0.6 μg μl^−1. Precision-bore glass capillary tubes (3.5-inch glass capillaries; Drummond Scientific Co.) were pulled on a vertical puller (P-87 Flaming/Brown micropipette puller, Sutter Instrument Co.), graduated, and placed on a microinjector (Nanoject II Auto-Nanoliter Injector, Drummond Scientific Co.). 50 nl of nuclease-free water alone (control oocytes) or 50 nl of 0.6 μg μl^−1 RNA were injected under stereomicroscopic control. Injected oocytes were incubated for 46–72 h at 18 °C with twice-daily buffer changes before usage in experiments.
Drug uptake assays were performed as described previously[21],[22],[24],[34]. […] The direction of radio-labeled drug transport is here from the mostly acidic extracellular solution (pH 4.5 or 6.0, as indicated) into the oocyte cytosol (pH ∼ 7.2), which corresponds to the efflux of drug from the acidic digestive vacuole (pH 5.2) into the parasite cytoplasm (pH 7.2). The topology of PfCRT in the oolemma is such that both the N- and C-terminus face the extracellular milieu[3],[22]. In the parasite, the N- and C-terminus face the lumen of the digestive vacuole. CQ uptake kinetics were performed by incubating oocytes in ND96 buffer adjusted to a pH of 4.5, 5.0, 5.5, or 6.0 and supplemented with 50 nM [^3H]CQ and one of 7 different CQ concentrations (10 µM, 50 µM, 100 µM, 200 µM, 300 µM, 400 µM, 500 µM CQ). The reaction was stopped at the 60 min time point, which is in the linear uptake range[22],[34] (Supplementary Fig. 17). […] The radioactivity of each sample was measured using a liquid scintillation analyzer Tri-Carb 4910 TR (PerkinElmer). Oocytes that were injected with water instead of RNA were analyzed in parallel, representing the uptake of a drug by diffusion and/or endogenous permeation pathways. […]

PfCRT variant E207H = assay: CQ uptake assay, oocytes expressing E207H; conditions: for Km: read-out: KM ± SEM
Protocol: as §1, §2
(§3) Drug uptake assays were performed as described previously[21],[22],[24],[34]. […] The direction of radio-labeled drug transport is here from the mostly acidic extracellular solution (pH 4.5 or 6.0, as indicated) into the oocyte cytosol (pH ∼ 7.2), which corresponds to the efflux of drug from the acidic digestive vacuole (pH 5.2) into the parasite cytoplasm (pH 7.2). The topology of PfCRT in the oolemma is such that both the N- and C-terminus face the extracellular milieu[3],[22]. In the parasite, the N- and C-terminus face the lumen of the digestive vacuole. […] For determination of the amount of drug uptake for each oocyte, the reaction medium was removed and the oocytes were washed three times with 2 ml of ice-cold ND96 buffer. Each oocyte was individually transferred to a scintillation vial containing 5% sodium dodecyl sulfate (200 μl) for lysis. […] Oocytes that were injected with water instead of RNA were analyzed in parallel, representing the uptake of a drug by diffusion and/or endogenous permeation pathways. The resulting value represents the “background“ level of drug accumulation in oocytes (in-depth discussion in[22]). The specific PfCRT-mediated uptake was determined by subtracting the corresponding background value measured in water-injected oocytes from that of PfCRT-expressing oocytes. In all cases, at least three separate experiments were performed on oocytes from different frogs (biological replicate), and for each condition in an experiment, measurements were made from 10 oocytes per treatment. For pH 5.5, 6.0, and 6.5, ND96 was buffered with 5 mM MES/Tris base.

PfCRT variant E207W = assay: CQ uptake assay, oocytes expressing E207W
Protocol: as §1, §2, §3

[1] = E121A, 50 µM CQ, 1 h, mean ± SEM
[2] = E207H, 50 µM CQ, 1 h, mean ± SEM
[3] = pH 4.5, individual replicates, Fig 6b
[4] = pH 6.0, individual replicates, Fig 6b
[5] = ratio of activity pH 4.5 / pH 6.0
[6] = E207W, 50 µM CQ, 1 h, mean ± SEM

CCN(CC)CCCC(C)Nc1ccnc2cc(Cl)ccc12 (centres unmarked) [CQ, chloroquine]
Activity at pH 4.5 (PfCRT variant E121A; [1]): 1.35 ± 0.09 pmol h-1 oocyte-1
Activity at pH 6.0 (PfCRT variant E121A; [1]): 3.95 ± 0.82 pmol h-1 oocyte-1
R-value (PfCRT variant E121A; E121A, CQ transport at pH 4.5 / pH 6.0): 0.43 ± 0.06
E121A transport activity pH 4.5 (PfCRT variant E121A; pH 4.5, single replicates, Fig 1d left): 1.13 pmol oocyte-1 h-1 and 1.51 pmol oocyte-1 h-1 and 1.41 pmol oocyte-1 h-1
E121A transport activity pH 6.0 (PfCRT variant E121A; pH 6.0, single replicates, Fig 1d left): 5.74 pmol oocyte-1 h-1 and 2.27 pmol oocyte-1 h-1 and 3.83 pmol oocyte-1 h-1
E207H transport activity (PfCRT variant E207H; 10 μM CQ, pH 4.5): 0.41 pmol oocyte-1 h-1 and 0.39 pmol oocyte-1 h-1 and 0.48 pmol oocyte-1 h-1
E207H transport activity (PfCRT variant E207H; 10 μM CQ, pH 6.0): 0.74 pmol oocyte-1 h-1 and 0.57 pmol oocyte-1 h-1 and 1.12 pmol oocyte-1 h-1 and 0.76 pmol oocyte-1 h-1
E207H transport activity (PfCRT variant E207H; 50 μM CQ, pH 4.5): 2.07 pmol oocyte-1 h-1 and 1.95 pmol oocyte-1 h-1 and 1.52 pmol oocyte-1 h-1
E207H transport activity (PfCRT variant E207H; 50 μM CQ, pH 6.0): 4.71 pmol oocyte-1 h-1 and 5.16 pmol oocyte-1 h-1 and 4.70 pmol oocyte-1 h-1 and 3.98 pmol oocyte-1 h-1
E207H transport activity (PfCRT variant E207H; 100 μM CQ, pH 4.5): 4.26 pmol oocyte-1 h-1 and 4.32 pmol oocyte-1 h-1 and 4.33 pmol oocyte-1 h-1 and 5.17 pmol oocyte-1 h-1
E207H transport activity (PfCRT variant E207H; 100 μM CQ, pH 6.0): 8.51 pmol oocyte-1 h-1 and 8.56 pmol oocyte-1 h-1 and 9.98 pmol oocyte-1 h-1 and 9.68 pmol oocyte-1 h-1
E207H transport activity (PfCRT variant E207H; 200 μM CQ, pH 4.5): 6.09 pmol oocyte-1 h-1 and 7.31 pmol oocyte-1 h-1 and 7.21 pmol oocyte-1 h-1
E207H transport activity (PfCRT variant E207H; 200 μM CQ, pH 6.0): 12.59 pmol oocyte-1 h-1 and 12.95 pmol oocyte-1 h-1 and 14.47 pmol oocyte-1 h-1 and 12.58 pmol oocyte-1 h-1
E207H transport activity (PfCRT variant E207H; 300 μM CQ, pH 4.5): 7.95 pmol oocyte-1 h-1 and 7.89 pmol oocyte-1 h-1 and 7.92 pmol oocyte-1 h-1 and 8.79 pmol oocyte-1 h-1
E207H transport activity (PfCRT variant E207H; 300 μM CQ, pH 6.0): 15.93 pmol oocyte-1 h-1 and 18.38 pmol oocyte-1 h-1 and 15.91 pmol oocyte-1 h-1 and 15.89 pmol oocyte-1 h-1
E207H transport activity (PfCRT variant E207H; 400 μM CQ, pH 4.5): 8.22 pmol oocyte-1 h-1 and 9.32 pmol oocyte-1 h-1 and 10.99 pmol oocyte-1 h-1 and 9.19 pmol oocyte-1 h-1
E207H transport activity (PfCRT variant E207H; 400 μM CQ, pH 6.0): 18.75 pmol oocyte-1 h-1 and 17.55 pmol oocyte-1 h-1 and 18.62 pmol oocyte-1 h-1
E207H transport activity (PfCRT variant E207H; 500 μM CQ, pH 4.5): 8.40 pmol oocyte-1 h-1 and 9.28 pmol oocyte-1 h-1 and 9.33 pmol oocyte-1 h-1 and 9.38 pmol oocyte-1 h-1
E207H transport activity (PfCRT variant E207H; 500 μM CQ, pH 6.0): 19.42 pmol oocyte-1 h-1 and 18.73 pmol oocyte-1 h-1 and 21.15 pmol oocyte-1 h-1 and 18.43 pmol oocyte-1 h-1
E207H transport activity pH 4.5 (PfCRT variant E207H; CQ uptake, oocytes expressing E207H, pH 4.5, individual replicates (Fig 6c)): 2.07 pmol oocyte-1 h-1 and 1.95 pmol oocyte-1 h-1 and 1.52 pmol oocyte-1 h-1
E207H transport activity pH 5.0 (PfCRT variant E207H; CQ uptake, oocytes expressing E207H, pH 5.0, individual replicates (Fig 6c)): 2.16 pmol oocyte-1 h-1 and 3.19 pmol oocyte-1 h-1 and 2.08 pmol oocyte-1 h-1 and 1.56 pmol oocyte-1 h-1
E207H transport activity pH 5.5 (PfCRT variant E207H; CQ uptake, oocytes expressing E207H, pH 5.5, individual replicates (Fig 6c)): 2.52 pmol oocyte-1 h-1 and 2.31 pmol oocyte-1 h-1 and 4.16 pmol oocyte-1 h-1 and 3.55 pmol oocyte-1 h-1
E207H transport activity pH 6.0 (PfCRT variant E207H; CQ uptake, oocytes expressing E207H, pH 6.0, individual replicates (Fig 6c)): 4.71 pmol oocyte-1 h-1 and 5.16 pmol oocyte-1 h-1 and 4.70 pmol oocyte-1 h-1 and 3.98 pmol oocyte-1 h-1
E207H transport activity pH 6.5 (PfCRT variant E207H; CQ uptake, oocytes expressing E207H, pH 6.5, individual replicates (Fig 6c)): 3.76 pmol oocyte-1 h-1 and 4.49 pmol oocyte-1 h-1 and 4.51 pmol oocyte-1 h-1 and 2.60 pmol oocyte-1 h-1
E207H transport activity pH 7.0 (PfCRT variant E207H; CQ uptake, oocytes expressing E207H, pH 7.0, individual replicates (Fig 6c)): 2.49 pmol oocyte-1 h-1 and 3.47 pmol oocyte-1 h-1 and 3.41 pmol oocyte-1 h-1 and 2.67 pmol oocyte-1 h-1
Vmax ± SEM (PfCRT variant E207H; E207H, pH 4.5): 13 ± 1 pmol h^−1 oocyte ^−1
Km (PfCRT variant E207H; E207H, pH 4.5): 230 ± 35 µM
Vmax ± SEM (PfCRT variant E207H; E207H, pH 6.0): 29 ± 1 pmol h^−1 oocyte ^−1
Km (PfCRT variant E207H; E207H, pH 6.0): 230 ± 20 µM
Activity at pH 4.5 (PfCRT variant E207H; [2]): 1.99 ± 0.16 pmol h-1 oocyte-1
Activity at pH 6.0 (PfCRT variant E207H; [2]): 4.64 ± 0.21 pmol h-1 oocyte-1
R-value (PfCRT variant E207H; E207H, CQ transport at pH 4.5 / pH 6.0): 0.43 ± 0.03
E207H transport activity pH 4.5 (PfCRT variant E207H; [3]): 2.07 pmol oocyte-1 h-1 and 1.95 pmol oocyte-1 h-1 and 1.52 pmol oocyte-1 h-1
E207H transport activity pH 6.0 (PfCRT variant E207H; [4]): 4.71 pmol oocyte-1 h-1 and 5.16 pmol oocyte-1 h-1 and 4.70 pmol oocyte-1 h-1 and 3.98 pmol oocyte-1 h-1
E207H R-value (PfCRT variant E207H; [5]): 0.51 and 0.40 and 0.41 and 0.38
Activity at pH 4.5 (PfCRT variant E207W; [6]): 2.40 ± 0.17 pmol h-1 oocyte-1
Activity at pH 6.0 (PfCRT variant E207W; [6]): 3.18 ± 0.35 pmol h-1 oocyte-1
R-value (PfCRT variant E207W; E207W, CQ transport at pH 4.5 / pH 6.0): 0.78 ± 0.06
E207W transport activity pH 4.5 (PfCRT variant E207W; [3]): 2.68 pmol oocyte-1 h-1 and 2.94 pmol oocyte-1 h-1 and 1.91 pmol oocyte-1 h-1 and 1.82 pmol oocyte-1 h-1 and 2.34 pmol oocyte-1 h-1
E207W transport activity pH 6.0 (PfCRT variant E207W; [4]): 2.46 pmol oocyte-1 h-1 and 4.37 pmol oocyte-1 h-1 and 2.52 pmol oocyte-1 h-1 and 2.14 pmol oocyte-1 h-1 and 3.58 pmol oocyte-1 h-1 and 4.02 pmol oocyte-1 h-1
E207W R-value (PfCRT variant E207W; [5]): 0.67 and 0.76 and 0.85 and 0.65
